Test results reported in US12257237B2 (priority 2017, dated 2025).
Several values for one entry are separate records, joined by “and”; a condition that tells them apart may be missing. Equal values may be shown once.

Assay: Drug tolerability (body weight) in TC-71 Ewing sarcoma xenograft model
Type: in vivo, Athymic nude mice
Details: for BWL %: negative = loss vs day 9
Experimental: Experiments were performed with female Athymic nude mice, 9-10 weeks old obtained from Harlan Laboratories (Udine, Italy). They were maintained under Specific Pathogen Free conditions with constant temperature and humidity, according to the institutional guidelines.
Tumour growth mice was monitored two/three times a week (depending on tumour growth rate, to avoid unnecessary stress to the animals) by Vernier caliper. Mice were sacrificed when tumour reached a mean weight of 2±0.5 gr. The antitumour activity will be expressed as T/C %, where T and C were the mean tumour weight of treated and control groups, respectively. Mice were monitored daily and weighted at least two times a week. Tolerability was evaluated on the basis of body weight loss (BWL) and clinical observation.

[1] = EDO40: EDO-S101 40 mg/kg, day 9 from tumour inoculum (treatment start)
[2] = EDO40: EDO-S101 40 mg/kg, day 10 from tumour inoculum
[3] = EDO40: EDO-S101 40 mg/kg, day 11 from tumour inoculum
[4] = EDO40: EDO-S101 40 mg/kg, day 14 from tumour inoculum
[5] = EDO40: EDO-S101 40 mg/kg, day 16 from tumour inoculum
[6] = EDO40: EDO-S101 40 mg/kg, day 18 from tumour inoculum
[7] = EDO40: EDO-S101 40 mg/kg, day 21 from tumour inoculum
[8] = EDO40: EDO-S101 40 mg/kg, day 23 from tumour inoculum
[9] = EDO40: EDO-S101 40 mg/kg, day 25 from tumour inoculum
[10] = EDO40: EDO-S101 40 mg/kg, day 28 from tumour inoculum
[11] = EDO40: EDO-S101 40 mg/kg, day 30 from tumour inoculum
[12] = EDO40: EDO-S101 40 mg/kg, day 32 from tumour inoculum
[13] = EDO60: EDO-S101 60 mg/kg, day 9 from tumour inoculum (treatment start)
[14] = EDO60: EDO-S101 60 mg/kg, day 10 from tumour inoculum
[15] = EDO60: EDO-S101 60 mg/kg, day 11 from tumour inoculum
[16] = EDO60: EDO-S101 60 mg/kg, day 14 from tumour inoculum
[17] = EDO60: EDO-S101 60 mg/kg, day 16 from tumour inoculum
[18] = EDO60: EDO-S101 60 mg/kg, day 18 from tumour inoculum
[19] = EDO60: EDO-S101 60 mg/kg, day 21 from tumour inoculum
[20] = EDO60: EDO-S101 60 mg/kg, day 23 from tumour inoculum
[21] = EDO60: EDO-S101 60 mg/kg, day 25 from tumour inoculum
[22] = EDO60: EDO-S101 60 mg/kg, day 28 from tumour inoculum
[23] = EDO60: EDO-S101 60 mg/kg, day 30 from tumour inoculum
[24] = EDO60: EDO-S101 60 mg/kg, day 32 from tumour inoculum
[25] = EDO60: EDO-S101 60 mg/kg, day 35 from tumour inoculum
[26] = EDO60: EDO-S101 60 mg/kg, day 38 from tumour inoculum
[27] = EDO60: EDO-S101 60 mg/kg, day 42 from tumour inoculum
[28] = EDO60: EDO-S101 60 mg/kg, day 46 from tumour inoculum
[29] = EDO60: EDO-S101 60 mg/kg, day 49 from tumour inoculum
[30] = EDO60: EDO-S101 60 mg/kg, day 53 from tumour inoculum
[31] = EDO60: EDO-S101 60 mg/kg, day 56 from tumour inoculum
[32] = EDO80: EDO-S101 80 mg/kg, day 9 from tumour inoculum (treatment start)
[33] = EDO80: EDO-S101 80 mg/kg, day 10 from tumour inoculum
[34] = EDO80: EDO-S101 80 mg/kg, day 11 from tumour inoculum
[35] = EDO80: EDO-S101 80 mg/kg, day 14 from tumour inoculum
[36] = EDO80: EDO-S101 80 mg/kg, day 16 from tumour inoculum
[37] = EDO80: EDO-S101 80 mg/kg, day 18 from tumour inoculum
[38] = EDO80: EDO-S101 80 mg/kg, day 21 from tumour inoculum
[39] = EDO80: EDO-S101 80 mg/kg, day 23 from tumour inoculum
[40] = EDO80: EDO-S101 80 mg/kg, day 25 from tumour inoculum
[41] = EDO80: EDO-S101 80 mg/kg, day 28 from tumour inoculum
[42] = EDO80: EDO-S101 80 mg/kg, day 30 from tumour inoculum
[43] = EDO80: EDO-S101 80 mg/kg, day 32 from tumour inoculum
[44] = EDO80: EDO-S101 80 mg/kg, day 35 from tumour inoculum
[45] = EDO80: EDO-S101 80 mg/kg, day 38 from tumour inoculum
[46] = EDO80: EDO-S101 80 mg/kg, day 42 from tumour inoculum
[47] = EDO80: EDO-S101 80 mg/kg, day 46 from tumour inoculum
[48] = EDO80: EDO-S101 80 mg/kg, day 49 from tumour inoculum

## Cn1c(CCCCCCC(=O)NO)nc2cc(N(CCCl)CCCl)ccc21 [EDO-S101, 7-(5-(bis(2-chloroethyl)amino)-1-methyl-1H-benzo[d]imidazol-2-yl)-N-hydroxyheptanamide]
40 mg/kg group, unknown reasons, probably not ascribable to the drug
  mice found dead: One
40 mg/kg, day 10, 24 h after the first dose
  maximum BWL: 5.4%
60 mg/kg, day 25, 48 h after the third dose
  maximum BWL: 11.7%
80 mg/kg, day 14, 5 days after administration
  maximum body weight loss: 19.3%
80 mg/kg, recovered by day 24
  time to recovery from body weight loss: ≤ 10 days
[1]
  Mouse body weight, group Mean: 27.0 g
  BWL %: 0.0%
[2]
  Mouse body weight, group Mean: 25.6 g
  BWL %: −5.4%
[3]
  Mouse body weight, group Mean: 25.9 g
  BWL %: −4.0%
[4]
  Mouse body weight, group Mean: 26.6 g
  BWL %: −1.6%
[5]
  Mouse body weight, group Mean: 27.2 g
  BWL %: 0.7%
[6]
  Mouse body weight, group Mean: 26.1 g
  BWL %: −3.4%
[7]
  Mouse body weight, group Mean: 26.2 g
  BWL %: −3.0%
[8]
  Mouse body weight, group Mean: 27.1 g
  BWL %: 0.3%
[9]
  Mouse body weight, group Mean: 26.3 g
  BWL %: −2.9%
[10]
  Mouse body weight, group Mean: 27.7 g
  BWL %: 2.3%
[11]
  Mouse body weight, group Mean: 28.5 g
  BWL %: 5.3%
[12]
  Mouse body weight, group Mean: 28.7 g
  BWL %: 6.0%
[13]
  Mouse body weight, group Mean: 27.6 g
  BWL %: 0.0%
[14]
  Mouse body weight, group Mean: 25.6 g
  BWL %: −7.0%
[15]
  Mouse body weight, group Mean: 25.2 g
  BWL %: −8.6%
[16]
  Mouse body weight, group Mean: 25.4 g
  BWL %: −8.1%
[17]
  Mouse body weight, group Mean: 26.2 g
  BWL %: −5.1%
[18]
  Mouse body weight, group Mean: 25.2 g
  BWL %: −8.8%
[19]
  Mouse body weight, group Mean: 24.9 g
  BWL %: −9.8%
[20]
  Mouse body weight, group Mean: 25.0 g
  BWL %: −9.2%
[21]
  Mouse body weight, group Mean: 24.4 g
  BWL %: −11.7%
[22]
  Mouse body weight, group Mean: 25.3 g
  BWL %: −8.3%
[23]
  Mouse body weight, group Mean: 25.6 g
  BWL %: −7.3%
[24]
  Mouse body weight, group Mean: 26.4 g
  BWL %: −4.2%
[25]
  Mouse body weight, group Mean: 25.4 g
  BWL %: −8.0%
[26]
  Mouse body weight, group Mean: 25.8 g
  BWL %: −6.6%
[27]
  Mouse body weight, group Mean: 25.8 g
  BWL %: −6.5%
[28]
  Mouse body weight, group Mean: 25.1 g
  BWL %: −8.9%
[29]
  Mouse body weight, group Mean: 25.4 g
  BWL %: −8.1%
[30]
  Mouse body weight, group Mean: 26.7 g
  BWL %: −3.1%
[31]
  Mouse body weight, group Mean: 28.1 g
  BWL %: 2.0%
[32]
  Mouse body weight, group Mean: 27.9 g
  BWL %: 0.0%
EDO80: EDO-S101 80 mg/kg, day 9 from tumour inoculum (treatment start), 80 mg/kg
  Mouse body weight, individual mice: 28.4 g and 25.3 g and 26.1 g and 26.6 g and 28.5 g and 27.5 g and 32 g and 28.7 g
[33]
  Mouse body weight, group Mean: 25.3 g
  BWL %: −9.5%
EDO80: EDO-S101 80 mg/kg, day 10 from tumour inoculum, 80 mg/kg
  Mouse body weight, individual mice: 25.1 g and 22.8 g and 24 g and 24.8 g and 26.8 g and 24.4 g and 28.6 g and 25.5 g
[34]
  Mouse body weight, group Mean: 24.8 g
  BWL %: −11.1%
EDO80: EDO-S101 80 mg/kg, day 11 from tumour inoculum, 80 mg/kg
  Mouse body weight, individual mice: 24.9 g and 22.6 g and 23.5 g and 24.7 g and 26 g and 24.4 g and 27.9 g and 24.3 g
[35]
  Mouse body weight, group Mean: 22.5 g
  BWL %: −19.3%
EDO80: EDO-S101 80 mg/kg, day 14 from tumour inoculum, 80 mg/kg
  Mouse body weight, individual mice: 21.8 g and 19.4 g and 22.4 g and 23.5 g and 23.2 g (2×) and 23.8 g and 22.7 g
[36]
  Mouse body weight, group Mean: 23.9 g
  BWL %: −14.3%
EDO80: EDO-S101 80 mg/kg, day 16 from tumour inoculum, 80 mg/kg
  Mouse body weight, individual mice: 23.3 g and 19.7 g and 24.2 g and 25.1 g and 24.8 g and 24.4 g and 26.9 g and 22.9 g
[37]
  Mouse body weight, group Mean: 25.2 g
  BWL %: −9.6%
EDO80: EDO-S101 80 mg/kg, day 18 from tumour inoculum, 80 mg/kg
  Mouse body weight, individual mice: 24.1 g and 22.2 g and 24.8 g and 26 g and 27 g and 26.1 g and 28 g
[38]
  Mouse body weight, group Mean: 26.2 g
  BWL %: −6.1%
EDO80: EDO-S101 80 mg/kg, day 21 from tumour inoculum, 80 mg/kg
  Mouse body weight, individual mice: 25.7 g and 22.6 g and 26.5 g and 26.2 g and 27.4 g and 26.3 g and 29.6 g and 25.2 g
[39]
  Mouse body weight, group Mean: 26.6 g
  BWL %: −4.6%
EDO80: EDO-S101 80 mg/kg, day 23 from tumour inoculum, 80 mg/kg
  Mouse body weight, individual mice: 26.1 g and 23.8 g and 26.6 g (3×) and 27.9 g and 30.1 g and 25.2 g
[40]
  Mouse body weight, group Mean: 27.8 g
  BWL %: −0.4%
EDO80: EDO-S101 80 mg/kg, day 25 from tumour inoculum, 80 mg/kg
  Mouse body weight, individual mice: 27 g and 25.1 g and 27.9 g and 27.7 g and 28.8 g
[41]
  Mouse body weight, group Mean: 28.9 g
  BWL %: 3.6%
EDO80: EDO-S101 80 mg/kg, day 28 from tumour inoculum, 80 mg/kg
  Mouse body weight, individual mice: 27.9 g and 25.4 g and 28.7 g and 28.1 g
[42]
  Mouse body weight, group Mean: 28.5 g
  BWL %: 2.1%
EDO80: EDO-S101 80 mg/kg, day 30 from tumour inoculum, 80 mg/kg
  Mouse body weight, individual mice: 28.2 g and 25.3 g and 27.3 g and 27.9 g
[43]
  Mouse body weight, group Mean: 28.0 g
  BWL %: 0.4%
EDO80: EDO-S101 80 mg/kg, day 32 from tumour inoculum, 80 mg/kg
  Mouse body weight, individual mice: 27.4 g (2×) and 24.9 g and 26.6 g
[44]
  Mouse body weight, group Mean: 25.1 g
  BWL %: −9.9%
EDO80: EDO-S101 80 mg/kg, day 35 from tumour inoculum, 80 mg/kg
  Mouse body weight, individual mice: 24.4 g and 21.9 g and 24.8 g and 26.1 g
[45]
  Mouse body weight, group Mean: 25.0 g
  BWL %: −10.4%
EDO80: EDO-S101 80 mg/kg, day 38 from tumour inoculum, 80 mg/kg
  Mouse body weight, individual mice: 24.4 g and 21.8 g and 25.1 g and 25.3 g
[46]
  Mouse body weight, group Mean: 27.1 g
  BWL %: −2.9%
EDO80: EDO-S101 80 mg/kg, day 42 from tumour inoculum, 80 mg/kg
  Mouse body weight, individual mice: 26.3 g and 23.1 g and 27 g and 28 g
[47]
  Mouse body weight, group Mean: 28.8 g
  BWL %: 3.1%
EDO80: EDO-S101 80 mg/kg, day 46 from tumour inoculum, 80 mg/kg
  Mouse body weight, individual mice: 28.6 g and 25.3 g and 28.3 g and 30 g
[48]
  Mouse body weight, group Mean: 30.2 g
  BWL %: 8.2%
EDO80: EDO-S101 80 mg/kg, day 49 from tumour inoculum, 80 mg/kg
  Mouse body weight, individual mice: 29.8 g and 26 g and 30 g and 32.3 g
All dose regimens
  BWL during second cycle: < 9%
